We go through 9 compounds from ChEMBL document CHEMBL4017466, “Efficient synthesis of a multi-substituted diphenylmethane skeleton as a steroid mimetic” (Bioorg Med Chem Lett, 2017).

Active and inactive are the calls of the source. The calls are words filed in the database; no cut-off is given here.

The target in one test is T1, Estrogen receptor (Homo sapiens, UniProt P03372).
T1 sequence (P03372 whole entry): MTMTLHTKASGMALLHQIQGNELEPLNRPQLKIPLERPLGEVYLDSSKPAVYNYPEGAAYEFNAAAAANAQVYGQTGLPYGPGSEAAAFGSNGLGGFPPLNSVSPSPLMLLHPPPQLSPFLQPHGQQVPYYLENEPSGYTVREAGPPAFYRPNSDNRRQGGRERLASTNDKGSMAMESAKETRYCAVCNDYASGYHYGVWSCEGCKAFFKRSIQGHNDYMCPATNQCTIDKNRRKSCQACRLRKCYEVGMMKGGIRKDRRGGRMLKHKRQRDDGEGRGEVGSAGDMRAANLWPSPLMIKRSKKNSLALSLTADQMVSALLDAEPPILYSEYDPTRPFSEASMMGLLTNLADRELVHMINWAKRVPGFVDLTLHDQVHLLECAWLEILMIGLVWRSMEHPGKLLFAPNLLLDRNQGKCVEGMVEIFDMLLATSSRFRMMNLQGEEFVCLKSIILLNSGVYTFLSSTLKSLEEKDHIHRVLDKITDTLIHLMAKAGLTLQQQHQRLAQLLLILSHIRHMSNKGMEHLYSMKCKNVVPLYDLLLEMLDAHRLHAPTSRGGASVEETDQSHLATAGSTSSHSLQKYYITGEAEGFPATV
Put plainly: Antagonist activity at CMX-GAL4N fused human ERalpha expressed in HEK293 cells assessed as reduction in E2 induced response by luciferase reporter gene assay. It counts as cell-based. (In general: Reporter assays use an easily measured gene product as a stand-in for the process of interest.)

For test [1], the target named is T2, Estrogen receptor (Homo sapiens) (UniProt P03372).
T2 sequence (whole entry): T1 sequence (P03372 whole entry)
Put plainly: Antagonist activity at CMX-GAL4N fused human ERalpha expressed in HEK293 cells assessed as reduction in E2 induced response at 10 to 10^4 nM by luciferase reporter gene assay. It counts as cell-based.

In general, IC50 refers to the concentration needed to halve the response being measured. Consider `CCCC(CCC)(c1ccc(O)cc1)c1ccc(O)c(O)c1`, for which the IC50 at Estrogen receptor is 0.0632 µM.
On the same count and under the same terms, the figure for `CCC(CC)(c1ccc(O)cc1)c1ccc(O)c(O)c1` is 0.154 µM; for `CCCC(CCC)(c1ccc(O)c(C)c1)c1ccc(O)c(O)c1` it is 0.158 µM; for `CCCC(CCC)(c1ccc(O)c(C)c1)c1cc(C)c(O)c(O)c1` it is 0.271 µM.
Regarding `CCCC(CCC)(c1ccc(O)c(C)c1)c1ccc(OC(C)=O)c(OC(C)=O)c1`, the outcome in test [1] was Active.
Take `CCC(CC)(c1ccc(O)c(C)c1)c1ccc(O)c(O)c1`: at Estrogen receptor, the 50% inhibitory concentration (IC50) came to 0.664 µM.
On the same count and under the same terms, the figure for `CCCC(CCC)(c1ccc(O)c(C)c1)c1ccc(O)c(C)c1` is 0.00222 µM.
Still for that read-out and setting: the figure for `CCCC(CCC)(c1ccc(O)c(C)c1)c1ccc(OCCN(C)C)c(C)c1` is 0.134 µM; for `CCCC(CCC)(c1ccc(OCCN(C)C)c(C)c1)c1ccc(O)c(O)c1` it is 0.225 µM.
